In publication PMC12197660 (Viruses, 2025):
≈ marks a conversion by molar mass, not a printed value. Where “and” joins values, the source holds several entries; their conditions need not be identical. Equal values may be shown once. Read-outs that look alike come from different tables or passages of the source.

How the values were obtained:
[1] = Radiolabeled metabolism and excretion in rats; format: in vivo; conditions: for Share of radioactivity in AUC-pooled plasma: analyte after IV RDV
[2] = Solubility (PBS); format: physicochemical; conditions: aqueous buffer
[3] = LogD; format: physicochemical
[4] = Permeability (MDCK A-to-B); format: in vitro ADME, canine; conditions: dog, MDCK-MDR1, pH 7.4
[5] = tested on: plasma protein; assay: Plasma protein binding; format: in vitro ADME, mouse, rat, dog, monkey, and human
[6] = Plasma stability (Table 1, across species); format: in vitro ADME, mouse, rat, dog, monkey, and human
[7] = Intestinal (GI) S9 fraction stability; format: in vitro ADME, rat, dog, monkey, and human; conditions: for S9 Stability, Intestinal: assessed in rat, dog, monkey, and human
[8] = Hepatic S9 fraction stability; format: in vitro ADME, rat, dog, monkey, and human
[9] = tested on: OATP1B1/3, P-gp, BCRP, ENT1/2, CNT3; assay: Transporter substrate assessment; format: in vitro ADME, human
[10] = Plasma and PBMC PK after IV RDV 10 mg/kg (Table 2); format: in vivo, cynomolgus monkeys
[11] = Oral ODV PK in portal-vein-cannulated monkey; format: in vivo, cynomolgus monkey; conditions: for Time of plasma Cmax in both portal and systemic circulation: analyte after oral ODV 14.4 mg/kg, single monkey
[12] = Microautoradiography (MARG) of lung and trachea; format: in vivo, Sprague Dawley rats; set-up: Radioactivity in Blood vessels / Radioactivity in Trachea (representative) / Radioactivity in Bronchus (cartilage) / Radioactivity in Bronchus (smooth muscle) / Radioactivity in Bronchus (epithelium) / Radioactivity in Bronchioles / Radioactivity in Alveoli wall: key: +++: moderate levels of silver grains present; ++: low levels of silver grains present; +: background levels of silver grains present; conditions: [3H] compound, 30 min IV infusion 10 mg/kg (3700 µCi/kg), 1 h after infusion; per animal; for Radioactivity in Alveoli sac: key: +++: moderate levels of silver grains present; ++: low levels of silver grains present; +: background levels of silver grains present; for Radioactivity in Blood vessels: key: +++: moderate levels of silver grains present; ++: low levels of silver grains present; +: background levels of silver grains present; for Radioactivity in Bronchioles: key: +++: moderate levels of silver grains present; ++: low levels of silver grains present; +: background levels of silver grains present; for Radioactivity in Bronchus (cartilage): key: +++: moderate levels of silver grains present; ++: low levels of silver grains present; +: background levels of silver grains present
[13] = tested on: adenosine deaminase; conditions: cited from earlier work
[14] = cynomolgus monkey; cited from earlier work
[15] = human; cited from earlier work
[16] = mean ± SD, N = 3, cited from earlier work
[17] = cited from earlier work
[18] = cited from earlier work; remark: listed apart in the source
[19] = GS-441524 plasma PK across species; conditions: for half-life: BALB/c (mouse), Sprague Dawley (rat), beagle (dog)
[20] = Plasma stability, cynomolgus monkey plasma; format: in vitro ADME
[21] = Plasma stability, human plasma; format: in vitro ADME
[22] = tested on: hydrolases (CatA, CES-1/2, HINT1); assay: Enzyme hydrolysis phenotype; format: in vitro ADME
[23] = QWBA tissue distribution of radioactivity; format: in vivo; conditions: oral [14C]ODV 200 mg/kg, rats
[24] = target: T1, CatA (Homo sapiens, UniProt P10619); assay: Enzyme hydrolysis phenotype, fraction metabolized by CatA; format: in vitro ADME
T1 sequence (P10619 29-480): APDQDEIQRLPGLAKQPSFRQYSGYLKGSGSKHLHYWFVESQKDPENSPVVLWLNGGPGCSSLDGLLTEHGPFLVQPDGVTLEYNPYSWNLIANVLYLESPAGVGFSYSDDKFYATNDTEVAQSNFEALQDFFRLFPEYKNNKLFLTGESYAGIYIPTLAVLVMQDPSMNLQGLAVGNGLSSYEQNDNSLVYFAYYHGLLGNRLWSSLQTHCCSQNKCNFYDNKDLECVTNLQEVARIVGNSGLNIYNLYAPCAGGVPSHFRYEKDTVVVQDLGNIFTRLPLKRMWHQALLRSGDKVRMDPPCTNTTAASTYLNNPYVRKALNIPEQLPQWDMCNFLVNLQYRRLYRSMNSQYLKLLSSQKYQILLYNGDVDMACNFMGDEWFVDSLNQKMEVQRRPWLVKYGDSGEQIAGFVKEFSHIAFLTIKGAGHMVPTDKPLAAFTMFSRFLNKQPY

[25] = target: T2, CES-1 (Homo sapiens, UniProt P23141); assay: Enzyme hydrolysis phenotype, fraction metabolized by CES-1; format: in vitro ADME
T2 sequence (P23141 18-567): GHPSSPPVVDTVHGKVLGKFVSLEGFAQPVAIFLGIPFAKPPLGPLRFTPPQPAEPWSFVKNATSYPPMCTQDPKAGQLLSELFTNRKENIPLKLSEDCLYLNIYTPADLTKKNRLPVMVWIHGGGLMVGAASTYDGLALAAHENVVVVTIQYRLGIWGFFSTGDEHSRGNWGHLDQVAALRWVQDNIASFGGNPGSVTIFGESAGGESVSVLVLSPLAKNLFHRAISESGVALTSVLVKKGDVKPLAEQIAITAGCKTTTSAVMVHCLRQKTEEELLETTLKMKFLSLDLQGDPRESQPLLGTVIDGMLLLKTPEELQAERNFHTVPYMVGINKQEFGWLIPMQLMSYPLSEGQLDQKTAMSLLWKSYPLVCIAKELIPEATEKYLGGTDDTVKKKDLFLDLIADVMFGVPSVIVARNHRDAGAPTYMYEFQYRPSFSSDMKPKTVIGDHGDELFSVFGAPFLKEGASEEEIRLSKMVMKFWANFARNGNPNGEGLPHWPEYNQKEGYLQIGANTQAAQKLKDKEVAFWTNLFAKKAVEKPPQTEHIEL

[26] = cynomolgus monkey, in vivo, iv, 10 mg/kg, 24 h
[27] = cited from earlier work; remark: listed apart in the source
[28] = tested on: OATP1B1/3, P-gp, BCRP, ENT1/2, CNT3; conditions: cited from earlier work
[29] = in vivo, cyno; cited from earlier work
[30] = PBS, read-out: Solubility (PBS)
[31] = A-to-B, read-out: Permeability (MDCK A-to-B)
[32] = range over mouse, rat, dog, monkey, and human
[33] = assessed in mouse, rat, dog, monkey, and human
[34] = assessed in rat, dog, monkey, and human
[35] = cynomolgus monkey, in vivo, iv, 10 mg/kg, analyte in plasma after IV RDV 10 mg/kg 30-min infusion, mean ± SD, N = 3, read-out: T1/2 in plasma (converted)
[36] = GS-441524 IV 30 min infusion 20 mg/kg
[37] = ODV oral 11.6 mg/kg (9.4 mg-eq/kg)
[38] = cynomolgus monkey, in vivo, iv, 10 mg/kg
[39] = male, Sprague Dawley, rat, in vivo, iv

N#CC1(c2ccc3c(=O)[nH]cnn23)OC(CO)C(O)C1O (stereo not drawn) [Deaminated nucleoside]
Level in feces, fold lower than GS-441524 ([1]; minor metabolite after oral ODV, rats and humans): 5- to 10 fold

N#C[C@@]1(c2ccc3c(N)ncnn23)O[C@H](CO)[C@@H](O)[C@H]1O [GS-441524]
solubility [2, 30]: 26.5 µg/mL (≈ 91 µM)
logD [3]: < 0.3
Papp A→B at 120 min [4, 31]: 0.16 ×10⁻⁶ cm/s
Plasma protein binding (% free) [5, 32]: 85–99 % free
Plasma stability [6, 33]: Stable
S9 Stability, Intestinal [7]: Stable
S9 Stability, Hepatic [8, 34]: Stable
Transporter substrate (text) [9]: substrate for P-gp
Transporter substrate ([9]; human): BCRP/P-gp ENT1/2/CNT3
half-life [10, 35]: 16.1 ± 4 h
Time of plasma Cmax in both portal and systemic circulation [11]: 1 h
Radioactivity in Alveoli sac [12]: ++ (2×) and +
Radioactivity in Alveoli wall [12]: +++
Radioactivity in Blood vessels [12]: +++
Radioactivity in Bronchioles [12]: +++
Radioactivity in Bronchus (cartilage) [12]: ++ and +++
Radioactivity in Bronchus (epithelium) [12]: ++ and +++
Radioactivity in Bronchus (smooth muscle) [12]: ++
Radioactivity in Trachea (representative) [12]: ++
Share of radioactivity in AUC-pooled plasma ([1]; rats): approximately 70%
Share of total radioactivity in plasma ([1]; analyte after oral ODV, rats): > 97%
Share of total sample radioactivity in feces ([1]; analyte after oral ODV, rats): ~ 85%
Adenosine deaminase substrate [13]: weak substrate for adenosine deaminase
Stability in plasma [14]: stable
Stability in plasma [15]: stable
Plasma GS-441524 AUC0–24h [16, 36]: 124,000 ± 11,000 nM·h
Plasma GS-441524 Tmax [16, 36]: 0.516 ± 0.058 h
Share of total radioactivity in plasma ([17]; analyte after IV RDV, humans): ~ 53%
Share of total radioactivity in plasma ([17]; analyte after oral ODV, humans): > 97%
Share of total sample radioactivity in feces ([17]; analyte after oral ODV, humans): 98%
Oral bioavailability of GS-441524, estimated ([18]; oral solution (55 °C) of GS-441524, human PK): < 15%
half-life ([19]; plasma, iv): 0.7 to 3.4 h
half-life ([19]; plasma, po): 1.4 to 4.2 h
Volume of distribution ([19]; IV, across species): moderate volume of distribution
clearance ([19]; IV, across species): low to moderate clearance
bioavailability ([19]; cynomolgus monkey, plasma, po): ~5%

N#C[C@@]1(c2ccc3c(N)ncnn23)O[C@H](COP(=O)(O)OP(=O)(O)OP(=O)(O)O)[C@@H](O)[C@H]1O [GS-443902]
T1/2 in PBMC ([10]; analyte in PBMC after IV RDV 10 mg/kg 30-min infusion, N = 3): 29.4 ± 3.0 h
half-life ([10]; cynomolgus monkey, in vivo, iv, 10 mg/kg, analyte in PBMC after IV RDV 10 mg/kg 30-min infusion, N = 3, read-out: T1/2 in PBMC (converted)): 29 h

C[C@H](NP(=O)(O)OC[C@H]1O[C@@](C#N)(c2ccc3c(N)ncnn23)[C@H](O)[C@@H]1O)C(=O)O [GS-704277]
Plasma protein binding (% free) [5, 32]: 95–100 % free
Plasma stability ([6]; assessed in monkey and human): Stable ^d
Stability in plasma ([20]; cynomolgus monkey plasma, 2 µM, 240 min incubation): stable
Stability in plasma ([21]; human plasma, 2 µM, 240 min incubation): stable
Transporter substrate ([9]; human): OATP1B1/3
Enzyme hydrolysis phenotype [22]: HINT1
half-life [10, 35]: 0.56 ± 0.01 h
Share of radioactivity in AUC-pooled plasma ([1]; rats): ~20%

CC(C)C(=O)OC[C@H]1O[C@@](C#N)(c2ccc3c(N)ncnn23)[C@H](O)[C@@H]1O [ODV, obeldesivir]
solubility [2, 30]: ~1000 µg/mL (≈ 2770 µM)
logD [3]: 0.9
Papp A→B at 120 min [4, 31]: 1.8 ×10⁻⁶ cm/s
Plasma protein binding (% free) [5, 32]: 56–76 % free
Plasma stability [6, 33]: Unstable (stable in dog)
Stability in GI S9 fractions ([7]; PMSF-free GI S9 from cynomolgus monkeys and humans, 2 µM): poor
S9 Stability, Intestinal [7]: Unstable
Stability in Hep S9 fractions ([8]; Hep S9 from cynomolgus monkeys and humans, 2 µM): poor
S9 Stability, Hepatic [8, 34]: Unstable
Transporter substrate [9]: BCRP/P-gp
Transporter substrate (text) [9]: substrate for both BCRP and P-gp transporters
Enzyme hydrolysis phenotype [22]: CES-1/2
Time of plasma Cmax in both portal and systemic circulation [11]: 0.25 h
Hepatic extraction of intact ODV absorbed ([11]; portal vs systemic plasma ODV exposures, oral ODV 14.4 mg/kg): near complete hepatic extraction
Persistence of radioactivity in tissues [23]: little [^14C]ODV-related radioactivity was detected after 24 h
Time by which broad distribution of drug-associated radioactivity was observed [23]: ≤ 0.25 h
Fecal excretion, of administered dose, mean ([1]; oral ODV, rats): 52%
Total mean [14C] dose recovery ([1]; oral ODV, rats): greater than 90%
Urinary excretion, mean ([1]; oral ODV, rats): 33%
Plasma GS-441524 AUC0–24h [16, 37]: 21,600 ± 11,000 nM·h
Plasma GS-441524 T1/2 [16, 37]: 2.62 ± 0.55 h
Plasma GS-441524 Tmax [16, 37]: 1.67 ± 0.58 h
Cmax ([16]; read-out: Plasma GS-441524 Cmax, ODV oral 11.6 mg/kg (9.4 mg-eq/kg)): 7.57 ± 6.07 µM
Fecal excretion, of administered dose, mean ([17]; oral ODV, humans): 32%
Total mean [14C] dose recovery ([17]; oral ODV, humans): greater than 90%
Urinary excretion, mean ([17]; oral ODV, humans): 58%
Oral bioavailability of GS-441524, estimated ([18]; clinical ODV 350 mg oral tablet): 41% to 50

CCC(CC)COC(=O)[C@H](C)N[P@](=O)(OC[C@H]1O[C@@](C#N)(c2ccc3c(N)ncnn23)[C@H](O)[C@@H]1O)Oc1ccccc1 [RDV, remdesivir, reference compound]
solubility [2]: 40.1 µg/mL (≈ 66.5 µM)
logD [3]: 2.5
Papp A→B at 120 min [4]: 1.32 ×10⁻⁶ cm/s
Plasma protein binding (% free) ([5]; plasma): 6–14 % free
Plasma stability [6]: Moderately Stable (unstable in mouse, rat)
half-life at 2 µM ([20]; cynomolgus monkey, plasma): 6.42 h
half-life at 2 µM ([21]; human, plasma): 1.3 h
S9 Stability, Hepatic [8]: Unstable
Transporter substrate ([9]; human): OATP1B1/P-gp
Enzyme hydrolysis phenotype (fm), CatA [24]: 10%
Enzyme hydrolysis phenotype (fm), CES-1 [25]: 80%
Vd [10, 38]: 0.504 ± 0.175 L/kg
clearance [10, 38]: 40 mL/min/kg
Fecal excretion, of administered dose [1, 39]: approximately 25%
Total mean [14C] dose recovery [1, 39]: greater than 90%
Urinary excretion, mean [1, 39]: 61%
Lung GS-443902 C24h [26]: 1.39 ± 0.15 nmol/g
PBMC GS-443902 C24h [26]: 31.0 ± 11.8 µM
Predicted human hepatic extraction: > 0.9
Stability in hepatic S9 [27]: unstable
Transporter substrate (text) [28]: substrate for both OATP1B1 and P-gp
Fecal excretion, of administered dose ([17]; in vivo, iv): ~18%
Total mean [14C] dose recovery ([17]; in vivo, iv): greater than 90%
Urinary excretion, mean ([17]; in vivo, iv): 74%
Oral bioavailability [29]: < 1%
